Data set [1] concerns testis of I/R rats. Put plainly: TNFα in testis of I/R rats (ELISA). Particulars: i.p. 1 h before ischemia, dose equivalent to 30 mg NAC, mean ± S.E.M, n=6. The class given is in vivo. As to the method:
(§1) This section describes the methods used in the investigation of the antiapoptotic effect of the novel compounds 6a–g then supported by further histological and molecular docking studies. The antiapoptotic effect of 6a–g was evaluated through evaluation of decreasing tissue damage induced by I/R in the testis of rats in a dose equivalent to 30 mg N-acetylcysteine (NAC) as an antiapoptotic reference. The rats were subdivided into sham, I/R, NAC and treated with tested compounds groups, each group comprises of 6 rats (weighing 140–150 g). The targeted compounds 6a–g were administrated intra-peritoneal (i.p.) an hour before ischemia, which lasted for (0.5 h) then reperfusion (1 h) followed by cutting the organ (Figure 5). Different biomarkers concentrations were measured in serum to detect testis injury due to ischemia/reperfusion (I/R).
(§2) It was reported that excessive apoptosis in the testis could damage the Leydig cells and apparent decline in serum testosterone levels. Furthermore, excessive apoptosis of Leydig cells results in decreased testosterone. The assays of the apoptotic biomarkers (testicular testosterone and TNFα) were done in comparison with the sham and NAC treated group and the results were outlined in Table S4 (Supplementary Materials).
(§3) TNF-α was measured by ELISA kit (Elabscience, Houston, TX, USA). Caspase-3 was measured by ELISA kit Cusabio, Houston, TX, USA (See Supplementary Materials). Testosterone concentration in testicular samples was determined by the ELISA kit (“DRG”, Marburg, Germany) (See Supplementary Materials).
A general note: ELISA stands for enzyme-linked immunosorbent assay.

In data set [2] the test system is caspase-3. Description: Caspase-3 level in serum of testicular I/R rats (ELISA). The class given is in vivo. Particulars: mean ± S.E.M, n=6. The method, then:
as §1
Caspases can delay apoptosis, implicating a potential role in drug screening efforts. Therefore, we studied the mechanism of the caspase-3 inhibition activity. Caspase-3 was assayed in the serum of rats treated with 6a–g in comparison with sham and the NAC treated group, as shown in Table S5 (Supplementary Materials).
as §3

Data set [3] relates to testis of I/R rats. Put plainly: Testicular TAC in testis of I/R rats. The class given is in vivo. Conditions: i.p. 1 h before ischemia, dose equivalent to 30 mg NAC, mean ± S.E.M, n=6. As to the method: as §1
(§4) During the long testicular torsion, oxidation damage affects the testis by the production of the reactive oxygen species (ROS). Excessive generation of the ROS interacts with lipids, proteins, and nucleic acids, which has an adverse effect on cell function and damage. The testis has high cell metabolism such that excessive ROS production weakens antioxidant capacity. Malondialdehyde (MDA) is the end product of lipid peroxidation and increased MDA level has an adverse effect on sperm fertility. Furthermore, total antioxidant capacity (TAC) is the measure of the number of free radicals scavenged by a test solution, being used to evaluate the antioxidant capacity of biological samples [55]. The data collected in Table S3 (Supplementary Materials) have identified that there was a significant increase in testicular MDA with a significant decrease in testicular TAC in the I/R group as well as compounds 6d and 6f when compared to sham control and NAC groups. These findings indicate that both 6d and 6f are the worst antiapoptotic compounds compound amongst all the synthesized compounds.
TAC was assessed by the colorimetric technique using commercial kits (El-Minia, Egypt) (See Supplementary Materials). Testicular MDA, an index of lipid peroxidation, was determined by using 1,1,3,3-tetramethoxypropane as standard (See Supplementary Materials). […]
1.3.Determination of Total Antioxidant Capacity (Testicular tissue)
Free radicals or reactive oxygen species (ROS) are produced during biochemical redox reactions as part
of normal physiological cell metabolism (protection from infectious organisms) and as a response to
environmental factors such as UV light, cigarette smoke, environmental pollutants, and g-radiation. Once
formed, ROS attack cellular components causing damage to lipids, proteins, and DNA which can initiate
Antioxidants in the sample reduce dark blue-green colored ABTS radical to colorless reduced ABTS
form. The change of absorbance at 660 nm is related with total antioxidant level of the sample. The assay
is calibrated with a stable antioxidant standard solution which is traditionally named as Trolox
Equivalent that is a vitamin E analog.
The determination of the antioxidative capacity is performed by the reaction of antioxidants in the
sample with a defined amount of exogenously provide hydrogen peroxide (H2O2) The antioxidants in the
sample eliminate a certain amount of the provided hydrogen peroxide. The residual H2O2 is determined
(1 picture or pasted object on this page, not shown here)
colorimetrically by an enzymatic reaction which involves the conversion of 3,5,dichloro–2–hydroxy
benzensulphonate to a colored product.
* Dilute R11000 times immediately before use (10 μl R1 + 10 ml d. Water mix Discard after use.
*Working Reagent: mix equal volumes of R2 and R3 immediately before use.
*Dilute sample if necessary
Total Antioxidant concentration […]

The test system of data set [4] is testis of I/R rats. Put plainly: Testicular MDA in testis of I/R rats. It counts as in vivo. Particulars: i.p. 1 h before ischemia, dose equivalent to 30 mg NAC, mean ± S.E.M, n=6. As to the method:
as §1, §4
TAC was assessed by the colorimetric technique using commercial kits (El-Minia, Egypt) (See Supplementary Materials). Testicular MDA, an index of lipid peroxidation, was determined by using 1,1,3,3-tetramethoxypropane as standard (See Supplementary Materials).

In data set [5] the test system is testis of I/R rats. Put plainly: Testicular testosterone in testis of I/R rats (ELISA). The class given is in vivo. Further details: unit not given here. Particulars: i.p. 1 h before ischemia, dose equivalent to 30 mg NAC, mean ± S.E.M, n=6. The method, then:
as §1, §2, §3
1.2.Determination of serum testosterone using ELISA kit
This ELISA kit uses the Competitive-ELISA principle. The micro ELISA plate provided in this kit has been pre-coated with T. During the reaction, T in the sample or standard competes with a fixed amount of T on the solid phase supporter for sites on the Biotinylated Detection Ab specific to T. Excess conjugate and unbound sample or standard are washed from the plate, and Avidin conjugated to Horseradish Peroxidase (HRP) are added to each microplate well and incubated. Then a TMB substrate solution is added to each well. The enzyme-substrate reaction is terminated by the addition of stop solution and the color change is measured spectrophotometrically at a wavelength of 450 nm ± 2 nm. The concentration of T in the samples is then determined by comparing the OD of the samples to the standard […]
Serum: Allow samples to clot for 2 hours at room temperature or overnight at 4℃ before centrifugation for 20 min at 1000×g at 2-8℃. Collect the supernatant to carry out the assay. Blood collection tubes should be disposable and be non-endotoxin. […]
1. Bring all reagents to room temperature (18~25℃) before use. Follow the Microplate reader manual for set-up and preheat it for 15 min before OD measurement.
2. Wash Buffer: Dilute 30 mL of Concentrated Wash Buffer with 720 mL of deionized or distilled water to prepare 750 mL of Wash Buffer. Note: if crystals have formed in the concentrate, warm it in a 40℃ water-bath and mix it gently until the crystals have completely dissolved.
3. Standard working solution: Centrifuge the standard at 10,000×g for 1min. Add 1.0mL of Reference Standard &Sample Diluent, let it stand for 10min and invert it gently several times. After it dissolves fully, mix it thoroughly with a pipette. This reconstitution produces a working solution of 20 ng/mL. Then make serial dilutions as needed. The recommended dilution gradient is as […]
Dilution method: Take 7 EP tubes, add 500uL of Reference Standard & Sample Diluent to each tube. Pipette 500uL of the 20 ng/mL working solution to the first tube and mix up to produce a 10 ng/mL working solution. Pipette 500uL of the solution from the former tube to the latter one according to this step. The illustration below is for reference. Note: the last tube is regarded as a blank. Don’t pipette solution into it from the former tube.

“And” between values parts separate entries of the source, which are not always exact repeats. Identical values can stand only once.

A word on the melting point: it is the temperature of the solid-liquid transition. In turn, `COc1ccc2[nH]c(=O)cc(-n3cc(COc4cc(=O)[nH]c5ccccc45)nn3)c2c1` [6c, 6-Methoxy-4-(4-(((2-oxo-1,2-dihydroquinolin-4-yl)oxy)methyl)-1H-1,2,3-triazol-1-yl)-quinolin-2(1H)-one] gave a melting point of 295 to 297 °C. Besides, the TNF-α in data set [1] was 106.70 ± 4.75 pg/mL. For the same compound, the Caspase-3 level in data set [2] worked out at 2.39 ± 0.23 ng/mL. For the same compound, the “Testicular TAC” value in data set [3] was determined as 4.78±0.39 mmol/g tissue. Also, the “Testicular MDA” value in data set [4] was found to be 64.93±4.50 nmol/g tissue. Further, the Testicular testosterone in data set [5] was 5.00±0.26.

Turning to `Cn1c(=O)cc(-n2cc(COc3cc(=O)[nH]c4ccccc34)nn2)c2ccccc21` [6d, 1-Methyl-4-(4-(((2-oxo-1,2-dihydroquinolin-4-yl)oxy)methyl)-1H-1,2,3-triazol-1-yl)quinolin-2(1H)-one], the melting point lay in the range of 285 to 287 °C. Also, the TNF-α in data set [1] is 234.50 ± 6.15 pg/mL. The compound also had a Caspase-3 level in data set [2] of 15.28 ± 1.51 ng/mL. Moreover, in data set [3], the “Testicular TAC” value was 1.89±0.29 mmol/g tissue. For the same compound, the “Testicular MDA” value in data set [4] was 117.50 ± 3.71 nmol/g tissue. Besides, the Testicular testosterone in data set [5] stood at 2.67±0.25.

Consider `Cc1ccc2[nH]c(=O)cc(OCc3cn(-c4cc(=O)[nH]c5ccccc45)nn3)c2c1` [6e, 6-Methyl-4-((1-(2-oxo-1,2-dihydroquinolin-4-yl)-1H-1,2,3-triazol-4-yl)methoxy)quinolin-2(1H)-one], for which the melting point is 272 to 274 °C. The TNF-α in data set [1] was found to be 188.90 ± 6.82 pg/mL. The compound further came in with a Caspase-3 level in data set [2] of 7.86 ± 0.28 ng/mL. Further, the “Testicular TAC” value in data set [3] was determined as 3.34±0.25 mmol/g tissue. For the same compound, the “Testicular MDA” value in data set [4] worked out at 85.00±6.46 nmol/g tissue. The Testicular testosterone in data set [5] turned out to be 3.62±0.17.

As for `Cc1ccc2[nH]c(=O)cc(OCc3cn(-c4cc(=O)[nH]c5ccc(C)cc45)nn3)c2c1` [6f, 6-Methyl-4-((1-(6-methyl-2-oxo-1,2-dihydroquinolin-4-yl)-1H-1,2,3-triazol-4-yl)meth-oxy)quinolin-2(1H)-one], the melting point fell in the range of 270 to 272 °C. Also, the TNF-α in data set [1] was 237.90 ± 4.52 pg/mL. Also, the Caspase-3 level in data set [2] was 16.34 ± 1.49 ng/mL. Besides, in data set [3], the “Testicular TAC” value is listed as 1.73±0.25 mmol/g tissue. For the same compound, the “Testicular MDA” value in data set [4] was 117.00±3.46 nmol/g tissue. Besides, the Testicular testosterone in data set [5] amounted to 1.83±0.14.

In turn, `COc1ccc2[nH]c(=O)cc(OCc3cn(-c4cc(=O)[nH]c5ccccc45)nn3)c2c1` [6g, 6-Methoxy-4-((1-(2-oxo-1,2-dihydroquinolin-4-yl)-1H-1,2,3-triazol-4-yl)methoxy)quinolin-2-(1H)-one] registered a melting point of 300 to 302 °C. The TNF-α in data set [1] is 192.00 ± 6.31 pg/mL. This compound also registered a Caspase-3 level in data set [2] of 6.99 ± 0.24 ng/mL. Besides, the “Testicular TAC” value in data set [3] was 3.34±0.21 mmol/g tissue. In addition, the “Testicular MDA” value in data set [4] is 89.59±5.58 nmol/g tissue. In data set [5], the Testicular testosterone turned out to be 3.45±0.22.

For the compound `CC(=O)N[C@@H](CS)C(=O)O` [NAC, N-acetylcysteine, reference compound], the TNF-α in data set [1] worked out at 93.39 ± 4.59 pg/mL. Moreover, the Caspase-3 level in data set [2] was 2.54 ± 0.22 ng/mL. In addition, in data set [3], the “Testicular TAC” value is 4.45 mmol/g tissue and 4.45±0.40 mmol/g tissue. The “Testicular MDA” value in data set [4] is 67.58 nmol/g tissue and 67.58±3.76 nmol/g tissue.

The record behind these values is publication PMC7672604, “Design, Synthesis, Molecular Docking, Antiapoptotic and Caspase-3 Inhibition of New 1,2,3-Triazole/Bis-2(1H)-Quinolinone Hybrids” (Molecules, 2020).
